From US20230114241A1, “METHODS OF TREATING EPILEPSY USING THE SAME” (Trevena, Inc., priority 2019, published 2023) come the findings set out here.

Each structure is given as a SMILES string.

human sphingosine-1-phosphate receptor 1 (S1P1), sequence (P21453 whole entry): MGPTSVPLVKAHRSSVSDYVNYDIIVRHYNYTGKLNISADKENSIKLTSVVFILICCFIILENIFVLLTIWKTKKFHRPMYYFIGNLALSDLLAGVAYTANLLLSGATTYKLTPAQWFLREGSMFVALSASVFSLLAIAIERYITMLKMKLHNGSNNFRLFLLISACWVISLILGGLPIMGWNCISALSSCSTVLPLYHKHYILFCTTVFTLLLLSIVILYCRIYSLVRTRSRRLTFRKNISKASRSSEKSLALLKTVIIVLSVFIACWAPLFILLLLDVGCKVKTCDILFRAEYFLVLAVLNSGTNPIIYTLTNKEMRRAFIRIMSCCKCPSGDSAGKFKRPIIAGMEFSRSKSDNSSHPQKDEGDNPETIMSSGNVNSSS

The first test concerns the target human sphingosine-1-phosphate receptor 1 (S1P1) (Homo sapiens, UniProt P21453). The experiment in a line: Inhibition of cAMP production (HTRF cAMP HiRange), S1P1 CHO-K1 cells. In kind it is cell-based. The note with it: inhibition of cAMP production, S1P1; read-out: hS1P1 CAMP pEC50 (converted). The procedure, abridged:
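CHO-K1 cells co-expressing human S1P1 (C-terminal ProLink tag) and EA-β-arrestin2, plated overnight; after 30 min compound incubation at 37 °C, intracellular cAMP measured by HTRF TR-FRET following 1 h at room temperature. Values normalized to fingolimod.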
As to `CCC1(CC)CC(=O)c2cc(-c3nc(-c4cncc(NS(C)(=O)=O)c4)no3)ccc2O1` [Compound 545, N-(5-(5-(2,2-diethyl-4-oxochroman-6-yl)-1,2,4-oxadiazol-3-yl)pyridin-3-yl)methanesulfonamide], the EC50 is under 316 nM.

As for `COc1ccc2nc(-c3ccc4c(c3)nnn4CC(C)C)oc2c1` [Compound 452, 2-(1-isobutyl-1H-benzo[d][1,2,3]triazol-5-yl)-6-methoxy-benzo[d]oxazole], the EC50 was over 316 nM. On the same count and under the same terms, the same measure for `COc1ccc2nc(-c3ccc4c(c3)nnn4C(C)C)oc2c1` [Compound 426, 2-(1-isopropyl-1H-benzo[d][1,2,3]triazol-5-yl)-6-methoxy-benzo[d]oxazole]: under 316 nM; for `COc1cccc(-c2coc(-c3ccc4c(c3)nnn4C(C)C)n2)c1` [Compound 385, 5-[4-(3-methoxyphenyl)-1,3-oxazol-2-yl]-1-(propan-2-yl)-H-1,2,3-benzotriazole]: over 316 nM; for `CC(C)n1nnc2cc(-c3nc(-c4nccn4C)no3)ccc21` [Compound 569, 5-[3-(1-methyl-1H-imidazol-2-yl)-1,2,4-oxadiazol-5-yl]-1-(propan-2-y1)-1H-1,2,3-benzotriazole]: over 316 nM. The same measure, in the same setting: the same measure for `Cc1ccccc1-c1cc(-c2ccc3c(c2)nnn3C(C)C)n(C)c1` [Compound 517, 5-[1-methyl-4-(2-methylphenyl)-1H-pyrrol-2-yl]-1-(propan-2-yl)-1H-1,2,3-benzotriazole]: over 316 nM. Still for that read-out and setting: the same measure for `CC(C)Nc1ccc(-c2nc(-c3ccc4sc(N)nc4c3)no2)cc1C#N` [Compound 441, 5-(3-(2-aminobenzo[d]thiazol-5-yl)-1,2,4-oxadiazol-5-yl)-2-(isopropylamino) benzonitrile]: under 316 nM. As for `CC(C)(O)Cn1nnc2cc(-c3nc(-c4ccncc4C(F)(F)F)no3)ccc21` [Compound 460, 2-methyl-1-(5-{3-[3-(trifluoromethyl)pyridin-4-yl]-1,2,4-oxadiazol-5-yl}-1H-1,2,3-benzotriazol-1-yl)propan-2-ol], the EC50 was over 316 nM. Still for that read-out and setting: as for `CC(C)(CO)n1nnc2cc(-c3noc(-c4cnccc4C(F)(F)F)n3)ccc21` [Compound 644, 2-methyl-2-(5-(5-(4-(trifluoro-methyl)pyridin-3-yl)-1,2,4-oxadiazol-3-yl)-1H-benzo[d][1,2,3]triazol-1-yl)propan-1-ol], the figure is over 316 nM.

Still in this test, the particulars now being: inhibition of cAMP production; potency; read-out: hS1P1 CAMP pEC50 (converted).
Consider `CC(C)CCn1nnc2cc(-c3nc(-c4ccccc4)no3)ccc21` [Compound 271, 1-(3-methylbutyl)-5-(3-phenyl-1,2,4-oxadiazol-5-yl)-1H-1,2,3-benzotriazole], for which the EC50 was over 316 nM. With `COc1ccccc1-c1noc(-c2ccc3c(c2)nnn3C(C)C)n1` [Compound 286, 5-(1-isopropyl-1H-benzo[d][1,2,3]triazol-5-yl)-3-(2-methoxy-phenyl)-1,2,4-oxadiazole], the EC50 is under 316 nM. For the molecule `O=C1CCOc2ccc(-c3nc(-c4cccnc4)no3)cc21` [Compound 102, 6-[3-(pyridin-3-yl)-1,2,4-oxadiazol-5-yl]-3,4-dihydro-2H-1-benzopyran-4-one], the EC50 was over 316 nM. Same read-out and setting: the same measure for `COc1ccccc1-c1nc(-c2ccc3c(c2)nnn3C2CCCC2)no1` [Compound 120, 3-(1-cyclopentyl-1H-benzo[d][1,2,3]triazol-5-yl)-5-(2-methoxyphenyl)-1,2,4-oxadiazole]: under 316 nM. The same measure, in the same setting: as for `COc1ccc(-c2noc(-c3ccc4c(c3)nnn4C(C)C)n2)c2ccccc12` [Compound 129, 5-[3-(4-methoxy-naphthalen-1-yl)-1,2,4-oxadiazol-5-yl]-1-(propan-2-yl)-1H-1,2,3-benzotriazole], the figure is over 316 nM; as for `COc1cccc(OC)c1-c1noc(-c2ccc3c(ccn3C(C)C)c2)n1` [Compound 325, 3-(2,6-dimethoxy-phenyl)-5-(1-isopropyl-indol-5-yl)-1,2,4-oxadiazole], over 316 nM; as for `CC(C)n1nnc2cc(-c3noc(-c4ccccc4OC(F)(F)F)n3)ccc21` [Compound 240, 3-(1-isopropyl-1H-benzo[d][1,2,3]triazol-5-yl)-5-(2-(trifluoro-methoxy)phenyl)-1,2,4-oxadiazole], over 316 nM. The same measure, in the same setting: the same measure for `CC(C)Nc1ccc(-c2nnc(-c3ccc4[nH]ncc4c3)o2)cc1C#N` [Compound 351, 5-[5-(1H-indazol-5-yl)-1,3,4-oxadiazol-2-yl]-2-[(propan-2-yl)amino]benzonitrile]: under 316 nM; for `CCC1(CC)CC(=O)c2cc(-c3nc(-c4ccc(O)nc4)no3)ccc2O1` [Compound 105, 2,2-diethyl-6-[3-(6-hydroxy-3-pyridyl)-1,2,4-oxadiazol-5-yl]chroman-4-one]: over 316 nM. For `CCC1(CC)CC(=O)c2cc(-c3nc(-c4ccnc(OC)c4)no3)ccc2O1` [Compound 38, 2,2-diethyl-6-(3-(2-methoxypyridin-4-yl)-1,2,4-oxadiazol-5-yl)chroman-4-one], the EC50 is over 316 nM. Take `CCC1(CC)CC(=O)c2cc(-c3nnc(-c4ccccc4OC)s3)ccc2O1` [Compound 178, 2,2-diethyl-6-(5-(2-methoxyphenyl)-1,3,4-thiadiazol-2-yl)chroman-4-one]: the EC50 was over 316 nM. On the same count and under the same terms, the same measure for `CCCn1nnc2cc(-c3nc(-c4ccncc4)no3)ccc21` [Compound 205, 1-propyl-5-[3-(pyridin-4-yl)-1,2,4-oxadiazol-5-yl]-1H-1,2,3-benzotriazole]: over 316 nM.

As to `Cc1cccc(C)c1-c1noc(-c2ccc3c(c2)nnn3C(C)C)n1` [Compound 243, 3-(2,6-dimethyl-phenyl)-5-(1-isopropyl-1H-benzo[d][1,2,3]triazol-5-yl)-1,2,4-oxadiazole], the EC50 was over 316 nM. Same read-out and setting: the same measure for `O=C1CC2(CCC(F)(F)CC2)Oc2ccc(-c3nc(-c4cccnc4)no3)cc21` [Compound 36, 4′,4′-difluoro-6-[3-(pyridin-3-yl)-1,2,4-oxadiazol-5-yl]-3,4-dihydrospiro[1-benzo-pyran-2,1′-cyclohexane]-4-one]: over 316 nM; for `CC(C)n1nnc2cc(-c3noc(-c4cnccn4)n3)ccc21` [Compound 78, 3-(1-isopropyl-1H-benzo[d][1,2,3]triazol-5-yl)-5-(pyrazin-2-yl)-1,2,4-oxadiazole]: over 316 nM.

On to `Cn1nnc2cc(-c3noc(-c4ccccc4Br)n3)ccc21` [Compound 73, 5-(2-bromophenyl)-3-(1-methyl-1H-benzo[d][1,2,3]triazol-5-yl)-1,2,4-oxadiazole], for which the EC50 was over 316 nM. On to `Cc1ccc(-c2nc(-c3ccc4c(c3)nnn4C(C)C)no2)cn1` [Compound 119, 3-(1-isopropyl-1H-benzo[d][1,2,3]triazol-5-yl)-5-(6-methyl-pyridin-3-yl)-1,2,4-oxadiazole], for which the EC50 is over 316 nM. Still for that read-out and setting: as for `CCc1ncc(-c2noc(-c3ccc4c(c3)nnn4C(C)C)n2)cn1` [Compound 135, 5-[3-(2-ethylpyrimidin-5-yl)-1,2,4-oxadiazol-5-yl]-1-(propan-2-yl)-1H-1,2,3-benzotriazole], the figure is over 316 nM; as for `CC(C)Nc1ccc(-c2nc(-c3ccc4c(c3)CC(=O)N4)no2)cc1C#N` [Compound 107, 2-(isopropylamino)-5-(3-(2-oxoindolin-5-yl)-1,2,4-oxadiazol-5-yl)benzonitrile], under 316 nM; as for `CC(C)n1nnc2cc(-c3noc(-c4ccc(F)cc4)n3)ccc21` [Compound 255, 5-(4-fluorophenyl)-3-(1-isopropyl-benzotriazol-5-yl)-1,2,4-oxadiazole], over 316 nM. On the same count and under the same terms, the same measure for `Cc1oc(-c2ccc3c(c2)nnn3C(C)C)nc1-c1ccc(Cl)cc1` [Compound 50, 5-[4-(4-chlorophenyl)-5-methyl-1,3-oxazol-2-yl]-1-(propan-2-yl)-1H-1,2,3-benzotriazole]: over 316 nM; for `CCC1(CC)CC(=O)c2cc(-c3nnc(-c4cccnc4)s3)ccc2O1` [Compound 104, 2,2-diethyl-6-(5-(pyridin-3-yl)-1,3,4-thiadiazol-2-yl)chroman-4-one]: under 316 nM. On the same count and under the same terms, the same measure for `CC(C)CCn1nnc2cc(-c3nc(-c4ccc(C(F)(F)F)c(F)c4)no3)ccc21` [Compound 122, 5-{3-[3-fluoro-4-(trifluoromethyl)phenyl]-1,2,4-oxadiazol-5-yl}-1-(3-methyl-butyl)-1H-1,2,3-benzotriazole]: over 316 nM. As to `CC(C)n1nnc2cc(-c3nc(-c4ccncc4)no3)ccc21` [Compound 244, 1-(propan-2-yl)-5-[3-(pyridin-4-yl)-1,2,4-oxadiazol-5-yl]-1H-1,2,3-benzotriazole], the EC50 was under 316 nM.

Turning to `CCC1(CC)CC(=O)c2cc(-c3nc(-c4ccncc4OC)no3)ccc2O1` [Compound 212, 2,2-diethyl-6-(3-(3-methoxypyridin-4-yl)-1,2,4-oxadiazol-5-yl)chroman-4-one], the EC50 was under 316 nM. Regarding `Cc1ccncc1-c1noc(-c2ccc3c(c2)nnn3CC(C)(C)O)n1` [Compound 206, 2-methyl-1-{5-[3-(4-methylpyridin-3-yl)-1,2,4-oxadiazol-5-yl]-1H-1,2,3-benzotriazol-1-yl}propan-2-ol], the EC50 was over 316 nM. Turning to `CC(C)n1nnc2cc(-c3nc(-c4ccccc4)co3)ccc21` [Compound 294, 5-(4-phenyl-1,3-oxazol-2-yl)-1-(propan-2-yl)-1H-1,2,3-benzotriazole], the EC50 is over 316 nM.

Regarding `C=CCNc1ccc(-c2nc(-c3ccc(NS(C)(=O)=O)cc3)no2)cc1C#N` [Compound 149, N-(4-(5-(4-(allylamino)-3-cyanophenyl)-1,2,4-oxadiazol-3-yl)phenyl) methanesulfonamide], the EC50 is under 316 nM. The same measure, in the same setting: as for `CC(C)n1nnc2cc(-c3nc(-c4ccccc4OC(F)(F)F)no3)ccc21` [Compound 132, 5-(1-isopropyl-1H-benzo[d][1,2,3]triazol-5-yl)-3-(2-(trifluoro-methoxy)phenyl)-1,2,4-oxadiazole], the figure is under 316 nM; as for `Cc1ccccc1-c1cnc(-c2ccc3c(c2)nnn3C(C)C)s1` [Compound 216, 2-(1-isopropyl-benzotriazol-5-yl)-5-(o-tolyl)thiazole], over 316 nM.
